Assay results from patent publication US12485085B2, “PPAR agonist complex and methods of use” (RODAN & FIELDS, LLC, priority 2019, dated 2025).

Columns and labels:
PPAR-α = molecular target: T1, PPAR-α (Homo sapiens, UniProt Q07869); test: PPAR-α luciferase reporter assay in CHO cells
T1 sequence (Q07869 1-468): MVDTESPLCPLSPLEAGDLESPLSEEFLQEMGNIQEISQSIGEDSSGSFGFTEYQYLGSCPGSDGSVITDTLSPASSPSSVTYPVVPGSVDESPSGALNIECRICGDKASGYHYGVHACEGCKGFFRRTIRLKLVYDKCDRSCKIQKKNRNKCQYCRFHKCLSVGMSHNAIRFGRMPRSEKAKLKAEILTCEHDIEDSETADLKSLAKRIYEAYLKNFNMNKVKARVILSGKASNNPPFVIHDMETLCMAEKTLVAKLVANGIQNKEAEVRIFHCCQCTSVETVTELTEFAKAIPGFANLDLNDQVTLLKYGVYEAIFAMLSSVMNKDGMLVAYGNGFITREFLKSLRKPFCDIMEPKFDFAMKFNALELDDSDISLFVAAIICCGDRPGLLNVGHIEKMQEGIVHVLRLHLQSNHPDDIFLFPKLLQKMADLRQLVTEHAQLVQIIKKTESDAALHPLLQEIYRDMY
Description: The objective of this project was to determine the effects of the test materials listed in Table 4 on the transcription regulatory activity of PPARα in a luciferase reporter assay system.
A variety of samples were tested on the effect on the transcription of the PPAR-α controlled luciferase reporter gene.
PPAR-α Luciferase experiment: Compositions were tested at 250 μg/mL Dilution in DMSO (FIG. 1) and 500 μg/mL Dilution in DMSO (FIG. 2).
Table 5 summarizes the effect of different concentrations of test materials on the transcriptional activation of the luciferase reporter gene under the PPAR-α-controlled promoter (2 separate experiments, Experiment 1 wherein sample prep was done in water and Experiment 2 wherein the sample prep was done in DMSO).

EpiDerm skin substitutes = test: Skin irritation in reconstructed human epidermal model EpiDerm (MTT viability); type: cell-based; parameters: key to Classification: I = irritant; NI = non irritant
Description: Materials and Methods: Thirty p of each sample was applied on top of EpiDerm skin substitutes.
EpiDerm skin substitutes (cat. EPI-200-SIT; Lot #29690) and 5% SDS solution (positive control) were obtained from MatTek (Ashland, Mass.). The test was generally performed according to MatTek protocol. The study was conducted in line with requirements of OECD GD 34 and ECVAM Performance Standard document for applying human skin models to in vitro skin irritation. This protocol utilizes the MTT-based cytotoxicity readout as the experimental endpoint, and thus effectively measures the cytotoxicity of test materials at the level of the skin. MTT [3-(4,5-Dimethylthiazol-2-yl)-2,5-diphenyltetrazolium bromide, a tetrazole] which is yellow, is reduced to purple formazan in living cells and this conversion is measured in a colorimetric assay. MTT assay measures the activity of succinate dehydrogenase, a key enzyme in the respiratory electron transport chain in mitochondria and is a generally-accepted test for measuring cytotoxicity.
Statistically significant variation was defined as ≥15% variation from the water control with p value<0.05 calculated using double-tailed t-test.

IL-8 = IL-8 quantification in EpiDerm-conditioned media (ELISA); type: cell-based, human
Description: The test material was assayed in duplicates. Controls were assayed in triplicates. The negative control was type I sterile water and Finsolv. The positive control was 5% SDS. All incubations were at 37° C. The pre-incubation time 1 (tissue acclimatization time) was overnight and the exposure to samples was 60 min. Tissues were then rinsed with sterile PBS and placed in the new culture medium. Post-incubation time 1 was 24 h, afterward medium was collected and saved at −20° C. for later interleukin quantification, and tissues were placed in new medium. Post-incubation time 2 was 18 h (both post-incubation times are to allow the consequences of the potential irritation to fully develop), MTT test (irritation readout) was 3 h and the extraction was left overnight. The extracted formazan (the product of the MTT conversion, proportional to cell viability) was quantified with Molecular Devices microplate reader MAX190 by colorimetry. Signal quantification was performed using SoftMax3.1.2PRO at 560 nm. For IL-8 quantification (a complementary method for assessing skin irritation), 100 μl samples of media from each well were tested in triplicates using CytoSet antibody pair for ELISA from Thermo Fischer Scientific (Waltham, Mass.; cat. #133301) according to the manufacturer's instructions. […]

CHO cells = test: Cytotoxicity observed in the PPAR-α luciferase reporter assay; conditions: for Cytotoxic?: Experiment 2 (sample prep in DMSO)
Description: A variety of samples were tested on the effect on the transcription of the PPAR-α controlled luciferase reporter gene. CHO cells were utilized and are an epithelial cell line derived from the ovary of the Chinese hamster.

[1] = Lipophilic oxygen radical absorbance capacity (Lipo-ORAC) assay; type: biochemical; conditions: expressed in Trolox equivalents
Description: Because of its damaging effect on vital biological systems, oxidative stress has been implicated in more than 100 diseases and aging. The objective of this test was to measure the antioxidant potential of the test materials listed in Table I using lipophilic oxygen radical absorbance capacity (Lipo-ORAC) assay (Stock solutions were prepared in acetone at 2% and diluted in 7% RMCD immediately before the experiment). Lipo-ORAC assay measures the ability of antioxidant compounds to inhibit the decline in disodium fluorescein (FL) fluorescence that is induced by peroxyl radical generator, 2′,2′-Azobis (2-amidinopropane) dihydrochloride (AAPH). The peroxyl radical is one of the most common reactive oxygen species (ROS) found in the body. This procedure incorporates random methylated beta-cyclodextrin as a solubility enhancer and allows for quantification of antioxidant potential of lipophilic samples, using Trolox as standard. Applied Biosystems Cytofluor 4000 fluorometer and software were used for the quantification of this assay.

[2] = tested on: C57BL/6 mouse melanocytes; test: Melanin content in melanocytes and melanocyte-conditioned medium; type: cell-based; conditions: 3 days; for % Control (extracellular melanin): melanocyte-conditioned medium
Description: Materials & Methods: Test material was dissolved at 100 mg/ml in DMSO the day of the experiment, diluted in sterile distilled water and samples were added in duplicates to confluent cultures of C57BL/6 mouse melanocytes well plate format. The cell growth medium was Opti-MEM supplemented with 7% horse serum (ThermoFisher Scientific, Waltham, Mass.) and antibiotics. Medium was freshly changed on Day 0 of the experiment. Cells were grown in the presence of the test material for 3 days, afterward they were frozen at −20° C., lysed in Solvable (Perkin Elmer, Waltham, Mass.) at 37° C. for 60 min. and colorimetrically quantified at 490 nm with Molecular Devices (Sunnyvale, Calif.) microplate reader MAX190. Kojic acid (100 μg/ml and 200 μg/ml) was the positive control. Statistically significant variation was defined as >20% variation from the water control with p value<0.05 calculated with double-tailed t-test.
Test materials were added to exponentially-growing cultures and the experiment was terminated 3 days later.

PPAR-γ = molecular target: T2, PPAR-γ (Homo sapiens, UniProt P37231); test: PPAR-γ luciferase experiment; type: cell-based; conditions: statement of the description
T2 sequence (P37231 1-505): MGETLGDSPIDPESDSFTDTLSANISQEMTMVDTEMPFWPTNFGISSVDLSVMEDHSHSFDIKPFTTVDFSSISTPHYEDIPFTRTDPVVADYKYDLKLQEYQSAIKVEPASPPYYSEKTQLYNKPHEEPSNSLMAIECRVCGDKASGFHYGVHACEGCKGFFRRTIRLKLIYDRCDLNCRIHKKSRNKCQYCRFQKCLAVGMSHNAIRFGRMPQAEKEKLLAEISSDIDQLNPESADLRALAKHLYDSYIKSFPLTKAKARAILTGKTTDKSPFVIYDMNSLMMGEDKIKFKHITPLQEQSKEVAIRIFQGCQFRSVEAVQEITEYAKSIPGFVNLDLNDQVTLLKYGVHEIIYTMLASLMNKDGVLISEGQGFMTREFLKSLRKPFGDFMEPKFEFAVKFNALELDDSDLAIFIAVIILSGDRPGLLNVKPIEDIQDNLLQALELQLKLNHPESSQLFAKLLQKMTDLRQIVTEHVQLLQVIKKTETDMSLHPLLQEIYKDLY
Description: PPAR-γ Luciferase experiment: Compositions were tested at 50 μg/mL Dilution in DMSO (FIG. 3) and 200 μg/mL Dilution in DMSO (FIG. 4). Positive control: Rosiglitazone at 300 nM potent and selective agonist of PPARγ.

[3] = Experiment 2 (sample prep in DMSO), 250 μg/mL
[4] = Experiment 2 (sample prep in DMSO), 500 μg/mL
[5] = Experiment 1 (sample prep in water), 300 nM
[6] = Experiment 2 (sample prep in DMSO), 300 nM

Compound: Octadecenedioic Acid [ODA]
- % Control (H2O) (PPAR-α; [3]): 278%
- Chemoluminescence (PPAR-α; [3]): 15 arbitrary units
- % Control (H2O) (PPAR-α; [4]): 97%
- Chemoluminescence (PPAR-α; [4]): 5 arbitrary units

Compound: CCCCCCCCCCCCOS(=O)(=O)[O-].[Na+] [5% SDS]
- cells viable (EpiDerm skin substitutes; MTT): 12%
- Mean of OD (EpiDerm skin substitutes; MTT formazan at 560 nm, 60 min exposure, RFV3 at 10% in Finsolv): 0.038
- Mean of Viability [% water] (EpiDerm skin substitutes; MTT, 60 min exposure, RFV3 at 10% in Finsolv): 2 % water
- Classification (EpiDerm skin substitutes; RFV3 at 10% in Finsolv): I
- decrease of the IL-8 level (IL-8): 55%

Compound: Cc1nc(-c2ccc(C(F)(F)F)cc2)sc1C(=O)NCc1ccc(OC(C)(C)C(=O)O)cc1 [GW590735]
- % Control (H2O) (PPAR-α; [5]): 365%
- Chemoluminescence (PPAR-α; [5]): 344 arbitrary units
- % Control (H2O) (PPAR-α; [6]): 341%
- Chemoluminescence (PPAR-α; [6]): 19 arbitrary units
- effect on transcriptional activation of the luciferase reporter gene under the PPAR-α-controlled promoter (in words) (PPAR-α; summary of Table 5): strongly upregulated

Compound: CCCCCCCCC(O)CCCCCCCCC(=O)O (centres unmarked) [10HSA, Hydroxystearic Acid]
- Cytotoxic? (CHO cells; 250 μg/mL): Yes
- Cytotoxic? (CHO cells; 500 μg/mL): Yes
- % Control (H2O) (PPAR-α; [3]): 45%
- Chemoluminescence (PPAR-α; [3]): 2 arbitrary units
- % Control (H2O) (PPAR-α; [4]): 41%
- Chemoluminescence (PPAR-α; [4]): 2 arbitrary units

Compound: CCCCCCCCC(CCCCCC)C(=O)OC[C@H](OC(=O)C(CCCCCC)CCCCCCCC)[C@H]1OC(=O)C(OC(=O)C(CCCCCC)CCCCCCCC)=C1OC(=O)C(CCCCCC)CCCCCCCC (some centres unmarked) [Tetrahexyldecyl (THD) ascorbate]
- ORAC (Lipo-ORAC score) [1]: 0 μmoles TE/g
- ORAC (Lipo-ORAC score) ([1]; listed as THD ascorbate): no activity

Compound: O=c1cc(CO)occ1O [Kojic acid]
- % Control (intracellular melanin) ([2]; 100 μg/ml): 92%
- % Control (extracellular melanin) ([2]; 100 μg/ml): 90%
- % Control (intracellular melanin) ([2]; 200 μg/ml): 86%
- % Control (extracellular melanin) ([2]; 200 μg/ml): 84%

Compound: Cc1c(C)c2c(c(C)c1O)CCC(C)(C(=O)O)O2 (centres unmarked) [Trolox]
- ORAC (Lipo-ORAC score) [1]: 3985 μmoles TE/g

Compound: CCCCCC/C=C/C#CCCCCCCCC(=O)O [XA, (E)-Octadec-11-en-9-ynoic acid]
- cytotoxicity (in words) (CHO cells; Example 8, FIG. 9, 500 μg/mL in DMSO): cytotoxic
- Cytotoxic? (CHO cells; 500 μg/mL): Yes
- PPARγ agonist activity (in words) (PPAR-γ): moderate PPARγ agonist
- % Control (H2O) (PPAR-α; [3]): 145%
- Chemoluminescence (PPAR-α; [3]): 8 arbitrary units
- % Control (H2O) (PPAR-α; [4]): 24%
- Chemoluminescence (PPAR-α; [4]): 1 arbitrary units
- PPAR / PPARα agonist activity (in words) (PPAR-α; statements of the description): very mild PPARα agonist
